# Publication PMC5615911 (Toxicology Reports, 2016)
# “Also recorded” adds a separate entry of the source.
# What was measured:
# [1] = Pharmacokinetics of S3643, single iv or oral dose; type: in vivo, Sprague-Dawley rats; conditions: male
# [2] = molecular target: T1, CYP1A2 (Homo sapiens, UniProt P05177); assay: CYP inhibition, LC–MS/MS assay in human liver microsomes
# T1 sequence (P05177 1-516): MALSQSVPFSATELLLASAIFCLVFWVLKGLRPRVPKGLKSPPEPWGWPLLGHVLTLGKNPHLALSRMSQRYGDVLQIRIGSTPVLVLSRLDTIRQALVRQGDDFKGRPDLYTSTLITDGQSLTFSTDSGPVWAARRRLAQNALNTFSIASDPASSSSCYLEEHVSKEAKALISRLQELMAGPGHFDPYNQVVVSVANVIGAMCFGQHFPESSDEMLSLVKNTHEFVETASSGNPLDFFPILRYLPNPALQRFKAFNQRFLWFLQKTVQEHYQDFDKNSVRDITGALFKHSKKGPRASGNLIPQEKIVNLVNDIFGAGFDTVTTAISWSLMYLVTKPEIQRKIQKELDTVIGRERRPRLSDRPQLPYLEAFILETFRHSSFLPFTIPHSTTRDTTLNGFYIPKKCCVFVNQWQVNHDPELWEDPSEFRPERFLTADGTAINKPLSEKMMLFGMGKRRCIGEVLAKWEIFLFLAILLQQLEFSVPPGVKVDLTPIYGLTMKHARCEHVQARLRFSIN
# [3] = test system: human umami receptor; conditions: cited from earlier work
# [4] = molecular target: CYP2D6 (Homo sapiens, UniProt P10635); assay: CYP inhibition, LC–MS/MS assay in human liver microsomes; conditions: probe bufuralol
# Sequence of CYP2D6 (P10635 whole entry): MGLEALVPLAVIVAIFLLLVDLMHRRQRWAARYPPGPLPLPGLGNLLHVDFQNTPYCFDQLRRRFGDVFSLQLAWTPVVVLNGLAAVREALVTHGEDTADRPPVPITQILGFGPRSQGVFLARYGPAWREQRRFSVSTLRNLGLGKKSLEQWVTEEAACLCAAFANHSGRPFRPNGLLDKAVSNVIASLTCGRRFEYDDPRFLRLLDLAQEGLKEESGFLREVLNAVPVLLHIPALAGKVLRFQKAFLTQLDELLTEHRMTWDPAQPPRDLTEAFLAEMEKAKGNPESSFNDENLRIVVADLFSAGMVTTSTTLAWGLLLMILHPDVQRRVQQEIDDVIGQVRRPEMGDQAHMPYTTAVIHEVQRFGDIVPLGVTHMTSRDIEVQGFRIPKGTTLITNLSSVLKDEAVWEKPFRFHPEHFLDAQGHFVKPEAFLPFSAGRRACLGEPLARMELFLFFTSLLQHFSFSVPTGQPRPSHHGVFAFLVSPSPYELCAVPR
# [5] = test system: Chinese hamster ovary cells (CHO-WBL); assay: In vitro micronucleus test; type: cell-based
# [6] = 90-day subchronic toxicity study; type: in vivo, Sprague-Dawley rats
# [7] = Toxicokinetics in the 90-day dietary study; type: in vivo, Sprague-Dawley rats; conditions: for AUC0–24 h/dose / Cmax/dose: M+F combined
# [8] = In vitro metabolism, human liver microsomes; type: in vitro ADME; conditions: 60 min, 10 μM S3643, relative to S3643 peak area at time 0
# [9] = molecular target: CYP3A4 (Homo sapiens, UniProt P08684); assay: CYP inhibition, LC–MS/MS assay in human liver microsomes; conditions: for inhibition at 10 µM: human, human liver microsomes
# Sequence of CYP3A4 (P08684 whole entry): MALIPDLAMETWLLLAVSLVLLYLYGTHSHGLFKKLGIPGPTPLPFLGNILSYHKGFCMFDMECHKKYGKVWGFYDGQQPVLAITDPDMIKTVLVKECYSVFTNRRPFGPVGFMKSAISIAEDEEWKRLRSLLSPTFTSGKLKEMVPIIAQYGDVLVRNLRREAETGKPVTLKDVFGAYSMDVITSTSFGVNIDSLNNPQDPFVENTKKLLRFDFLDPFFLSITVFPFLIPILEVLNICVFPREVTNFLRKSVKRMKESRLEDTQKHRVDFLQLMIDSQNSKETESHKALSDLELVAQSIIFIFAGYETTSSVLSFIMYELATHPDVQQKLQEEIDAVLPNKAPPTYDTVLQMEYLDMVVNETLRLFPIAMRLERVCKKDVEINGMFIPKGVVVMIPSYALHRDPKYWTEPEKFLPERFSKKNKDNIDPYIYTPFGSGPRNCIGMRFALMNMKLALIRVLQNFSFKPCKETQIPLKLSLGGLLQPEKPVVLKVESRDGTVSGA
# [10] = test system: E. coli strain WP2 uvrA; assay: Bacterial reverse mutation test; type: cell-based
# [11] = molecular target: CYP2C19 (Homo sapiens, UniProt P33261); assay: CYP inhibition, LC–MS/MS assay in human liver microsomes; conditions: probe S-mephenytoin
# Sequence of CYP2C19 (P33261 whole entry): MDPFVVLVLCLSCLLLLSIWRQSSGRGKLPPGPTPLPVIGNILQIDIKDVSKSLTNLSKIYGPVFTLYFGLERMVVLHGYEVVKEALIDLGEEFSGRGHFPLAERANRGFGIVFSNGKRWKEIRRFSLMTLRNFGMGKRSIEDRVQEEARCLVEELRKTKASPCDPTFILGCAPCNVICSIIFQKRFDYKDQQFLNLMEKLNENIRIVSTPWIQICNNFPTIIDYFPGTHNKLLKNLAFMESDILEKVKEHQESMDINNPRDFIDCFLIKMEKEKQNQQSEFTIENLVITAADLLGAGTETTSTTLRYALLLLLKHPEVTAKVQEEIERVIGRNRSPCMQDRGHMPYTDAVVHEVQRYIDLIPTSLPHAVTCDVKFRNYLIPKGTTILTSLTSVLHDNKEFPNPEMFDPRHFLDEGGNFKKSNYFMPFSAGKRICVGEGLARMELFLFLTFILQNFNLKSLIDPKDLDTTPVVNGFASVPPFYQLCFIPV
# [12] = test system: GPCRs, ion channels, nuclear receptors, transporters; assay: Receptor lead profiling panel; conditions: 10 μM
# [13] = 10, 30, 100 mg/kg bw/day (food ad-mix)
smiles,measurement,setting,value
"COc1cccc(-c2n[nH]c(SCc3ccccn3)n2)c1OC [S3643, 2-(((3-(2,3-dimethoxyphenyl)-1H-1,2,4-triazol-5-yl)thio)methyl)pyridine]",AUC0-last/dose,[1]; iv 1.0 mg/kg bw,2790 ng·h/mL/mg/kg
same,AUC0-last,"[1]; iv 1.0 mg/kg bw, 1 mg/kg",2.79 ± 0.187 µg·h/mL
same,Cmax,"[1]; iv 1.0 mg/kg bw, 1 mg/kg",10.87 ± 1.87 µg/mL
same,AUC0-last/dose,[1]; oral gavage 10 mg/kg bw,2665 ng·h/mL/mg/kg
same,Cmax,"[1]; oral gavage 10 mg/kg bw, 10 mg/kg",32.51 ± 7.71 µg/mL
same,AUC0-last/dose,[1]; oral gavage 30 mg/kg bw,2678 ng·h/mL/mg/kg
same,AUC0-last/dose,[1]; oral gavage 100 mg/kg bw,1833 ng·h/mL/mg/kg
same,IC50,[2],> 10 µM
same,inhibition at 10 µM,"[2]; human, human liver microsomes, probe phenacetin",43%
same,Concentration lower than MSG for equivalent umami flavour effect,[3],1000 fold
same,inhibition at 10 µM,[4],22%
same,"Micronucleus formation (in vitro), result","[5]; 16–63 μg/mL, 19 h exposure, −S9",Negative
same,"Micronucleus formation (in vitro), result","[5]; 50–200 μg/mL, 3 h exposure, +S9",Negative
same,"Micronucleus formation (in vitro), result","[5]; 100–300 μg/mL, 3 h exposure, −S9",Negative
same,% cells in cytostasis,"[5]; 3 h, +S9, 50 μg/mL",−1%
same,% cells in cytostasis,"[5]; 3 h, +S9, 100 μg/mL",−2%
same,% cells in cytostasis,"[5]; 3 h, −S9, 100 μg/mL",1%
same,% cells in cytostasis,"[5]; 3 h, −S9, 200 μg/mL",0%
same,% cells in cytostasis,"[5]; 3 h, −S9, 300 μg/mL",25%
same,% cells in cytostasis,"[5]; 3 h, −S9, 450 μg/mL",93%
same,% cells in cytostasis,"[5]; 19 h, −S9, 16 μg/mL",10%
same,% cells in cytostasis,"[5]; 19 h, −S9, 63 μg/mL",50%
same,% cells in cytostasis,"[5]; 19 h, −S9, 130 μg/mL",93%
same,"Induction of micronuclei, conclusion",[5]; all conditions,did not induce micronuclei
same,"Findings, adverse effects",[6]; [13],No adverse test-article related findings
same,"Findings, body weight",[6]; [13],Lower body weight gain in females at 100 mg/kg/day
same,NOAEL,"[6]; 90 days in diet, male and female rats, highest dose tested",100 mg/kg bw/day
same,Mean body weight lower than controls,"[6]; females, 100 mg/kg bw/day, beginning at Week 5",7%
same,Absolute liver weight increase vs control,"[6]; males, 100 mg/kg bw/day",12.5%
same,Liver/body weight increase vs control,"[6]; males, 100 mg/kg bw/day",14.1%
same,Liver/brain weight increase vs control,"[6]; males, 100 mg/kg bw/day",13.5%
same,Margin of safety (NOAEL vs per capita intake 5 μg/kg bw/day),"[6]; rat, in vivo","> 20,000 fold"
same,AUC0–24 h/dose,"[7]; Day 7, nominal 10 mg/kg bw",574 ng·h/mL/mg/kg
same,Cmax/dose,"[7]; Day 7, nominal 10 mg/kg bw",31.9 ng/mL/mg/kg
same,AUC0–24 h/dose,"[7]; Day 7, nominal 30 mg/kg bw",1140 ng·h/mL/mg/kg
same,Cmax/dose,"[7]; Day 7, nominal 30 mg/kg bw",80.6 ng/mL/mg/kg
same,AUC0–24 h/dose,"[7]; Day 7, nominal 100 mg/kg bw",1280 ng·h/mL/mg/kg
same,Cmax/dose,"[7]; Day 7, nominal 100 mg/kg bw",75.7 ng/mL/mg/kg
same,AUC0–24 h/dose,"[7]; Day 90, nominal 10 mg/kg bw",1070 ng·h/mL/mg/kg
same,Cmax/dose,"[7]; Day 90, nominal 10 mg/kg bw",78.3 ng/mL/mg/kg
same,AUC0–24 h/dose,"[7]; Day 90, nominal 30 mg/kg bw",1560 ng·h/mL/mg/kg
same,Cmax/dose,"[7]; Day 90, nominal 30 mg/kg bw",98.0 ng/mL/mg/kg
same,AUC0–24 h/dose,"[7]; Day 90, nominal 100 mg/kg bw",1730 ng·h/mL/mg/kg
same,Cmax/dose,"[7]; Day 90, nominal 100 mg/kg bw",97.5 ng/mL/mg/kg
same,ACUM Ratio,"[7]; Day 90/Day 7, nominal 10 mg/kg bw",1.86
same,ACUM Ratio,"[7]; Day 90/Day 7, nominal 30 mg/kg bw",1.37
same,ACUM Ratio,"[7]; Day 90/Day 7, nominal 100 mg/kg bw",1.35
same,AUC(0-t),"[7]; both, Sprague-Dawley (Crl:CD(SD)), rat, plasma, po, 100 mg/kg bw/day, Combined mean AUC0-24hr, Day 90, 100 mg/kg bw/day",184 µg·h/mL
same,"% MS Peak Area, Human",[8],54.9%
same,IC50,[9],> 10 µM
same,inhibition at 10 µM,[9],< 50%
same,inhibition at 10 µM,[9]; probe midazolam,30%
same,"Reverse mutation (in vitro), result","[10]; 250–5000 μg/plate, plate incorporation and pre-incubation, ±S9",Negative
same,"Mutagenicity, conclusion",[10]; absence and presence of metabolic activation,not mutagenic
same,inhibition at 10 µM,[11],13%
same,Significant responses (≥50% inhibition or stimulation),[12],No significant responses; also recorded: No other significant off-target activities
